Read-outs that look alike come from different tables or passages of the source.
Legend:
Type in all cases: in vivo
Phytophthora infestans = assay: whole plant or invertebrate; settings: Phytophthora infestans, 72 h; for pest or weed control at 0.0025 ppm: application rate 0.0025 ppm a.i.; for pest or weed control at 0.005 ppm: application rate 0.005 ppm a.i.; for pest or weed control at 0.01 ppm: application rate 0.01 ppm a.i.
Sphaerotheca fuliginea = assay: Sphaerotheca test (cucumbers)/preventive
From the text: (§1) A synergistic effect of fungicides is always present when the fungicidal activity of the active compound combinations exceeds the total of the activities of the active compounds when applied individually. The expected activity for a given combination of two active compounds can be calculated as follows (cf. Colby, S. R., “Calculating Synergistic and Antagonistic Responses of Herbicide Combinations”, Weeds 1967, 15, 20-22):
(§2) If • X is the efficacy when active compound A is applied at an application rate of m ppm (or g/ha), • Y is the efficacy when active compound B is applied at an application rate of n ppm (or g/ha), • E is the efficacy when the active compounds A and B are applied at application rates of m and n ppm (or g/ha), respectively, and
Sphaerotheca Test (Cucumbers)/Preventive • Solvent: 24.5 parts by weight of acetone • 24.5 parts by weight of dimethylacetamide • Emulsifier: 1 part by weight of alkylaryl polyglycol ether
(§3) To produce a suitable preparation of active compound, 1 part by weight of active compound is mixed with the stated amounts of solvent and emulsifier, and the concentrate is diluted with water to the desired concentration.
(§4) To test for preventive activity, young plants are sprayed with the preparation of active compound at the stated rate of application. After the spray coating has dried on, the plants are inoculated with an aqueous spore suspension of Sphaerotheca fuliginea. The plants are then placed in a greenhouse at approximately 23° C. and a relative atmospheric humidity of approximately 70%.
The test is evaluated 7 days after the inoculation. 0% means an efficacy which corresponds to that of the untreated control, while an efficacy of 100% means that no disease is observed.

Alternaria solani = assay: Alternaria test (tomatoes)/preventive; settings: Alternaria solani, 72 h, read-out: Efficacy in % found; for pest or weed control at 25 ppm: application rate 25 ppm a.i.; for pest or weed control at 100 ppm: application rate 100 ppm a.i.
From the text: as §1, §2
Alternaria Test (Tomatoes)/Preventive • Solvent: 24.5 parts by weight of acetone • 24.5 parts by weight of dimethylacetamide • Emulsifier: 1 part by weight of alkylaryl polyglycol ether
as §3
as §4, with “Alternaria solani.” for “Sphaerotheca fuliginea.”, “an incubation cabinet” for “a greenhouse”, “20°” for “23°”, “100%.” for “approximately 70%.”
The test is evaluated 3 days after the inoculation. 0% means an efficacy which corresponds to that of the untreated control while an efficacy of 100% means that no disease is observed.

Venturia inaequalis = assay: Venturia test (apples)/preventive; settings: Venturia inaequalis, 240 h, read-out: Efficacy in % found; for pest or weed control at 50 ppm: application rate 50 ppm a.i.; for pest or weed control at 100 ppm: application rate 100 ppm a.i.
From the text: as §1, §2
Venturia test (apples)/preventive • Solvent: 24.5 parts by weight of acetone • 24.5 parts by weight of dimethylacetamide • Emulsifier: 1 part by weight of alkylaryl polyglycol ether
as §3
To test for preventive activity, young plants are sprayed with the preparation of active compound at the stated rate of application. After the spray coating has dried on, the plants are inoculated with an aqueous conidia suspension of the causal agent of apple scab (Venturia inaequalis) and then remain for 1 day in an incubation cabinet at approximately 20° C. and a relative atmospheric humidity of 100%.
The plants are then placed in a greenhouse at approximately 21° C. and a relative atmospheric humidity of approximately 90%.
The test is evaluated 10 days after the inoculation. 0% means an efficacy which corresponds to that of the untreated control, while an efficacy of 100% means that no disease is observed.

[1] = read-out: Efficacy in % found, Table 3
[2] = read-out: Efficacy in % found, Table 4
[3] = read-out: Efficacy in % found, Table 5
[4] = read-out: Efficacy in % found, Table 6
[5] = Table 7, application rate 100 ppm a.i.

CS(=O)(=O)Oc1cccc(Cl)c1C1CC(c2csc(C3CCN(C(=O)Cn4nc(C(F)F)cc4C(F)F)CC3)n2)=NO1 (stereo not shown) [(I-3), 2-{3-[2-(1-{[3,5-bis(difluoromethyl)-1H-pyrazol-1-yl]acetyl}piperidin-4-yl)-1,3-thiazol-4-yl]-4,5-dihydro-1,2-oxazol-5-yl}-3-chlorophenyl methanesulfonate]
pest or weed control at 0.0025 ppm (Phytophthora infestans; [1]): 65% | pest or weed control at 0.005 ppm (Phytophthora infestans; [2]): 5% | pest or weed control at 0.01 ppm (Phytophthora infestans; [2]): 28% | pest or weed control at 0.0025 ppm (Phytophthora infestans; [3]): 59% | pest or weed control at 0.01 ppm (Phytophthora infestans; [3]): 87% | pest or weed control at 0.0025 ppm (Phytophthora infestans; [4]): 79% | Efficacy in % found (Sphaerotheca fuliginea; [5]): 43% | Efficacy in % found (Sphaerotheca fuliginea; Table 8, application rate 50 ppm a.i.): 19% | Efficacy in % found (Sphaerotheca fuliginea; Table 9, application rate 50 ppm a.i.): 29% | pest or weed control at 25 ppm (Alternaria solani; Table 1): 0% | pest or weed control at 25 ppm (Alternaria solani; Table 2): 30% | pest or weed control at 100 ppm (Alternaria solani; Table 2): 36% | pest or weed control at 50 ppm (Venturia inaequalis; Table 10): 0% | pest or weed control at 100 ppm (Venturia inaequalis; Table 10): 0% | pest or weed control at 50 ppm (Venturia inaequalis; Table 11): 0% | pest or weed control at 100 ppm (Venturia inaequalis; Table 11): 15% | pest or weed control at 100 ppm (Venturia inaequalis; Table 12): 0% | pest or weed control at 100 ppm (Venturia inaequalis; Table 13): 0%

CS(=O)(=O)Oc1ccccc1C1CC(c2csc(C3CCN(C(=O)Cn4nc(C(F)F)cc4C(F)F)CC3)n2)=NO1 (stereo not shown) [(I-1), 2-{3-[2-(1-{[3,5-bis(difluoromethyl)-1H-pyrazol-1-yl]acetyl}piperidin-4-yl)-1,3-thiazol-4-yl]-4,5-dihydro-1,2-oxazol-5-yl}phenyl methanesulfonate]
pest or weed control at 0.005 ppm (Phytophthora infestans; [1]): 82% | pest or weed control at 0.005 ppm (Phytophthora infestans; [2]): 67% | pest or weed control at 0.01 ppm (Phytophthora infestans; [2]): 77% | pest or weed control at 0.0025 ppm (Phytophthora infestans; [3]): 52% | pest or weed control at 0.0025 ppm (Phytophthora infestans; [4]): 48% | Efficacy in % found (Sphaerotheca fuliginea; [5]): 19% | Efficacy in % found (Sphaerotheca fuliginea; Table 8, application rate 100 ppm a.i.): 0% | Efficacy in % found (Sphaerotheca fuliginea; Table 9, application rate 100 ppm a.i.): 38% | pest or weed control at 25 ppm (Alternaria solani; Table 1): 20% | pest or weed control at 100 ppm (Alternaria solani; Table 2): 34% | pest or weed control at 50 ppm (Venturia inaequalis; Table 10): 0% | pest or weed control at 100 ppm (Venturia inaequalis; Table 10): 0% | pest or weed control at 50 ppm (Venturia inaequalis; Table 11): 4% | pest or weed control at 100 ppm (Venturia inaequalis; Table 11): 13% | pest or weed control at 100 ppm (Venturia inaequalis; Table 12): 21% | pest or weed control at 100 ppm (Venturia inaequalis; Table 13): 0%
